Test results: patent US10493042B2, “Method for preventing or treating diabetes mellitus, and method for screening for diabetes mellitus therapeutic agent” (UNIVERSITY-INDUSTRY COOPERATION GROUP OF KYUNG HEE …, priority 2013, dated 2019)

Key:
NCI-H716 cell [1] = assay: GLP-1 secretion in human enteroendocrine cell (ELISA); assay type: cell-based; conditions: 10, 20, 50, 100, 200, 500, 1000 and 2000 μM, 1 hour, FIG. 1A
Protocol: A NCI-H716 cell, i.e., a human enteroendocrine cell, was obtained from Korean Cell Line Bank. The obtained cell was culture in RPMI 1640 medium until the number of obtained cells increased in a proper amount. Then. the cells were moved to a matrigel-coated plate, and then cultured in DMEM medium for 48 hours, for endocrine differentiation.
Geraniol and nerol were purchased from Signa-Aldrich, USA.
Human enteroendocrine cells were each treated with geraniol at a concentration of 10, 20, 50, 100, 200, 500, 1000, and 2000 μM, respectively, and then cells were cultured for 1 hour. A human enteroendocrine cell was treated with nerol, which is an isomer of geraniol, as a comparison group, i.e., a negative control group, under the same condition as in the treating with geraniol.
GLP-1 secretion from the cell treated with geraniol and the cell treated with nerol were identified using enzyme-linked immunosorbent assay (ELISA). ELISA was carried out using a GLP-1 ELISA kit, available from Millipore, based on the user manual. The amount of GLP-1 secretion was measured using a fluoroskan ascent microplate reader (Thermo Electron Corp., Finland).

olfactory receptor OR1A1 = biological target: T1, olfactory receptor OR1A1 (Homo sapiens, UniProt Q9P1Q5); assay: GLP-1 secretion by geraniol in enteroendocrine cell with OR1A1 knocked-down by siRNA; assay type: cell-based; conditions: 100 μM, 1 hour, OR1A1 knocked-down vs normal cell, FIG. 1B
T1 construct: endogenous in cells; host or cells: human enteroendocrine cell (NCI-H716 named)
T1 sequence (Q9P1Q5 1-309): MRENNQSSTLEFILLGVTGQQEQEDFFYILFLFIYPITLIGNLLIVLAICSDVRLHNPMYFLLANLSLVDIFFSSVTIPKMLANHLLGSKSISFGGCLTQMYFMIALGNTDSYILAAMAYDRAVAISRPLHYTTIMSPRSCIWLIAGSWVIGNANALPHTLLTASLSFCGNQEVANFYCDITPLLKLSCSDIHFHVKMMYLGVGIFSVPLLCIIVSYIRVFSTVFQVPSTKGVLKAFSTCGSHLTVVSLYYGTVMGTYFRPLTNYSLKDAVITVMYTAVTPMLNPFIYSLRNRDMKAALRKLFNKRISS
Protocol: (§1) In a human enteroendocrine cell, in which an olfactory receptor is knocked-down by small-interference RNA (siRNA), an olfactory receptor signal transduction mechanism was identified.
(§2) Human enteroendocrine cells in which olfactory receptors OR1A1 and OR1G1 were knocked-down by siRNAs, respectively, were cultured. SiRNAs for knocking-down OR1A1 (SEQ ID NO. 1 and 2, siRNA No. 1108058) and OR1G1 (SEQ ID NO. 3 and 4, siRNA No. 1108121) are available from Bioneer Co. (South Korea). Lipofectamine 2000 (available from Life technology, USA) was used to carry out intracellular transfection, based on the user manual.
(§3) The human enteroendocrine cells in which olfactory receptors were knocked-down and a normal human enteroendocrine cell were each treated with geraniol at a concentration of 100 μM. Then, the cells were cultured for 1 hour at 37° C. at a concentration of 5% CO2. Thereafter, GLP-1 secretion was identified using ELISA.

NCI-H716 cell [2] = assay: Cell viability MTT assay; assay type: cell-based, human; conditions: 10 μM to 1000 μM, 1 hour, compared with PBS, FIG. 8
Protocol: In order to verify cytotoxicity of geraniol on a human enteroendocrine cell, MTT assay was carried out as follows. In detail, cell viability assay was carried out using 3-(4,5-dimethylthiazol-2-yl)-2,5-diphenyltetrazolium) bromide (MTT) (available from Invitrogen, Carlsbad, Calif., USA). An endocrine cell, a NCI-H716 cell, was treated with geraniol of different levels of concentration and 6 mM MTT for 1 hour. Dimethyl sulfoxide (DMSO) was added to the cells, and absorbance thereof was measured using Bio-Rad model 680 microplated reader (Bio-Rad, Hercules, Calif., USA) at 540 nm.

[3] = system: human enteroendocrine cell; assay: Change of calcium concentration in human enteroendocrine cell; assay type: cell-based; conditions: 100 μM, treated after 1 minute elapsed from the start of the experiment, FIG. 2
Description: FIG. 2 is a graph showing the change of calcium concentration in a human enteroendocrine cell after geraniol treatment.

[4] = system: db/db mouse, type II diabetes mellitus model; assay: Plasma GLP-1 and insulin after gavage and glucose (multiplex assay); assay type: in vivo; conditions: oral administration, glucose 2 g/weight Kg, compared with PBS group
Protocol: By using the same method in Example 2 (1), db/db mice of fasted state were each gavaged with geraniol, metformin, or saline. Then, each group were administered with glucose of 2 g/weight Kg. after 10 minutes, 20 minutes, 30 minutes, and 40 minutes elapsed, the amount of GLP-1 and insulin in plasma were measured by using multiplex assay (available from Bio-Rad, USA), based on the user manual, and Bio-Plex MAGPIX multiplex reader (available from Bio-Rad, USA).

[5] = system: human enteroendocrine cell; assay: Change amount of cAMP in human enteroendocrine cell (cAMP ELISA); assay type: cell-based; conditions: 100 μM geraniol, FIG. 3
Protocol: In a human enteroendocrine cell, the result of geraniol treatment (100 μM) and forskolin treatment (10 μM), which is a cAMP activator, were compared with each other.

[6] = system: db/db mouse, type II diabetes mellitus model; assay: Oral glucose tolerance test with geraniol smelling (olfactory stimulation); assay type: in vivo
Protocol: A male 6 week-old db/db mouse was purchased from Daehan Biolink Co., Ltd (DBL, South Korea). A fasting blood sugar level of a db/db mouse of 18 hour-gastric emptying fasted state was measured. Then, the experimental group was stimulated (smelling) with geraniol through olfaction. The control group was oral administered with saline and metformin of 300 mg/weight Kg via gavage. Then, each of the experimental group and the control group were administered with glucose of 2 g/weight Kg. After 10 minutes, 20 minutes, 40 minutes, 90 minutes, and 120 minutes elapsed, the amount of GLP-1 in plasma was verified by using multiplex assay (available from Bio-Rad, USA).

olfactory receptor OR1G1 = biological target: T2, olfactory receptor OR1G1 (Homo sapiens, UniProt P47890); assay: GLP-1 secretion by geraniol in enteroendocrine cell with OR1G1 knocked-down by siRNA; assay type: cell-based; conditions: 100 μM, 1 hour, OR1G1 knocked-down vs normal cell, FIG. 1C
T2 construct: endogenous in cells; host or cells: human enteroendocrine cell (NCI-H716 named)
T2 sequence (P47890 1-313): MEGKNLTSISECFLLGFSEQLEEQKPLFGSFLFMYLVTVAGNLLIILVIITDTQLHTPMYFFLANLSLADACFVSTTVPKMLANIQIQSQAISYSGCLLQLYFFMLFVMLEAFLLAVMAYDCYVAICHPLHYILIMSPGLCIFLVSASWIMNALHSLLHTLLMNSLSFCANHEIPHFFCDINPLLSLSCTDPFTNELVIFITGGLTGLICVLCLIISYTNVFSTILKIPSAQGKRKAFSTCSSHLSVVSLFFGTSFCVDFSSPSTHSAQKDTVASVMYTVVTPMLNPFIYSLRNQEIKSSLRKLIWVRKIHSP
Protocol: as §1, §2, §3

[7] = system: db/db mouse, type II diabetes mellitus model; assay: Oral glucose tolerance test after gavage; assay type: in vivo
Protocol: Oral glucose tolerance test was performed on a db/db mouse (leptin receptor knocked-out mice) (35 g to 39 g), which is a type II diabetes mellitus model. A male 6 week-old db/db mouse was purchased from Daehan Biolink Co., Ltd (DBL, South Korea). A fasting blood sugar level of a db/db mouse of 18 hour-gastric emptying fasted state was measured. Then, the experimental group and the control group were each oral administered with geraniol and metformin, and saline via gavage. Geraniol was administered at 150 or 500 mg/weight Kg, and metformin was administered at 300 mg/weight Kg. Then, each group was administered with glucose of 5 g/weight Kg. Oral glucose tolerance test (OGTT) was performed after 10 minutes, 20 minutes, 40 minutes, 90 minutes, and 120 minutes elapsed.

SMILES | GLP-1 secretion promoting effect (NCI-H716 cell [1]) | GLP-1 secretion via stimulation of OR1A1 (olfactory receptor OR1A1) | cytotoxicity (cell viability, MTT) (NCI-H716 cell [2]) | time at which calcium concentration in the cell was the highest [3] | plasma GLP-1 ([4]; FIG. 6A, 6C) | plasma insulin ([4]; FIG. 6B, 6D) | time after treatment at which concentration of cAMP in the cell was the highest [5] | blood sugar level ([6]; geraniol smelling (olfactory stimulation), FIG. 9) | amount of GLP-1 in plasma ([6]; geraniol smelling, 10 minutes after glucose 2 g/weight Kg, vs metformin 300 mg/weight Kg oral, FIG. 10) | GLP-1 secretion via stimulation of OR1G1 (olfactory receptor OR1G1) | hypoglycemic effect at oral glucose tolerance test ([7]; gavage 150 or 500 mg/weight Kg, glucose 5 g/weight Kg, compared with saline group, FIG. 5A-5C) | hypoglycemic effect compared with metformin ([7]; geraniol gavage 150 or 500 mg/weight Kg vs metformin 300 mg/weight Kg)
CC(C)=CCC/C(C)=C\CO [nerol, reference compound] | had no GLP-1 secretion promotion effect |  |  |  |  |  |  |  |  |  |  | 
CC(C)=CCC/C(C)=C/CO [geraniol] | dose-dependently promotes GLP-1 secretion | stimulates OR1A1, an olfactory receptor, promoting GLP-1 secretion | found not to have cytotoxicity | 4 min | secretion inducing of GLP-1 | additional insulin | 30 min | lowered the blood sugar level | increased more than the case of metformin administration | stimulates OR1G1, an olfactory receptor, promoting GLP-1 secretion | exhibited hypoglycemic effect | comparable to metformin
